PubChem BioAssay (NCI)
Where “and” joins values, the source holds several entries; their conditions need not be identical. Identical values can stand only once.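 Briefly, cells in 96-well plates were exposed to five compound concentrations for 48 h, and endpoints were estimated by linear interpolation. At the GI50, growth is halved. TGI denotes the concentration required for complete inhibition of growth.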

Experiments:
Assay in all cases: NCI tumour cell line growth inhibition, 48 h
[1] = tested on: HCT-116 colon
[2] = tested on: HL-60(TB) leukemia
[3] = tested on: HT29 colon
[4] = tested on: K-562 leukemia
[5] = tested on: KM12 colon
[6] = tested on: MALME-3M melanoma
[7] = tested on: MOLT-4 leukemia
[8] = tested on: OVCAR-8 ovarian
[9] = tested on: SF-268 CNS
[10] = tested on: SK-MEL-5 melanoma

Compound | GI50 [1] | TGI [1] | GI50 [2] | TGI [2] | GI50 [3] | TGI [3] | GI50 [4] | TGI [4] | GI50 [5] | TGI [5] | GI50 [6] | TGI [6] | GI50 [7] | TGI [7] | GI50 [8] | TGI [8] | GI50 [9] | TGI [9] | GI50 [10] | TGI [10]
O=c1nc2[nH]c3c(-c4n[nH]c(=O)[nH]c4=O)cccc3c2n[nH]1 | > 100 µM | > 100 µM | > 100 µM | > 100 µM | > 100 µM | > 100 µM | > 100 µM | > 100 µM | > 100 µM | > 100 µM | > 100 µM | > 100 µM | > 100 µM | > 100 µM | > 100 µM | > 100 µM | > 100 µM | > 100 µM | > 100 µM | > 100 µM
CC1OC(OC2C(O[C@H]3CC[C@@]4(C)C(=CC[C@H]5[C@@H]6C[C@@H]7O[C@]8(CC[C@@H](C)CO8)[C@@H](C)[C@@H]7[C@@]6(C)CC[C@@H]54)C3)OC(CO)C(OC3OC(CO)C(O)C3O)C2O)C(O)C(O)C1O (stereo partly drawn) | 1.26 µM | 1.6 µM and 2.52 µM | 0.506 µM | 1.77 µM and 1.89 µM | 1.01 µM | 1.62 µM and 2.17 µM |  | 50 µM | 0.287 µM | 2.39 µM and 0.849 µM | 0.324 µM | 1.61 µM and 0.891 µM | 0.187 µM | 1.8 µM and 0.412 µM | 0.423 µM | 1.16 µM and 1.5 µM |  | 1.61 µM and 2.03 µM | 0.487 µM | 1.43 µM and 1.67 µM
Nc1ccc(C(=O)/C=C/c2ccccc2O)cc1 |  | > 100 µM |  | > 100 µM |  | > 100 µM |  | > 100 µM |  | > 100 µM |  | > 100 µM |  | > 100 µM |  | > 100 µM |  | > 100 µM |  | > 100 µM
O=C(N/N=C/c1ccc(F)cc1)c1ccc(C(F)(F)F)nc1Nc1cccc(C(F)(F)F)c1 | 0.65 µM | 2.79 µM | 0.827 µM | 3.72 µM | 2.02 µM | 5.23 µM | 1.07 µM | 5.02 µM | 1.38 µM | 3.76 µM | 1.28 µM | 4.68 µM | 1.57 µM | 5.5 µM | 1.7 µM | 6.62 µM | 0.465 µM | 2.34 µM | 1.62 µM | 4.48 µM
Cn1ccnc1C(=O)/C=C/c1ccc(C(=O)Nc2c(F)c(F)c(F)c(F)c2F)cc1 | 1.17 µM | 2.48 µM | 1.8 µM | 4.74 µM | 1.77 µM | 3.89 µM | 0.526 µM | 2.83 µM | 1.14 µM | 2.71 µM | 2.1 µM | 5.91 µM | 1.91 µM | 4.81 µM | 1.72 µM | 4.04 µM | 1.81 µM | 4.42 µM | 1.79 µM | 3.28 µM
COc1cc(CCc2ccc(OC(C)=O)cc2)cc(OC)c1OC |  | > 100 µM |  | > 100 µM |  | > 100 µM |  | > 100 µM |  | > 100 µM |  | > 100 µM |  | > 100 µM |  | > 100 µM |  | > 100 µM |  | > 100 µM
O=NN(CCCl)C(=O)NC1CCCCC1 | 21 µM | 50.2 µM and 105 µM | 41.5 µM and 41 µM | 69.9 µM and > 80.6 µM and 83.8 µM | 36.6 µM and 64.3 µM | 139 µM and 165 µM | 10.9 µM and 36.6 µM | 43.9 µM and 228 µM and 106 µM | 17.5 µM and 82.1 µM | 47.4 µM and 158 µM and 200 µM | 18 µM | 37 µM and 150 µM and 112 µM | 20.7 µM and 36.1 µM | 38.4 µM and 99.1 µM and 80.3 µM | 19.2 µM and 70.8 µM | 42 µM and 208 µM and 215 µM | 21 µM and 33.6 µM | 57.9 µM and 120 µM and 235 µM | 23 µM and 78.4 µM | 78.5 µM and 133 µM and 209 µM
Nc1ncnc2c1nc(Cl)n2C1OC(CO)C(O)C1O (stereo not drawn) |  | > 100 µM |  | 3.97 µM |  | > 83 µM |  | > 100 µM |  | > 100 µM |  | > 100 µM |  | > 100 µM |  | > 100 µM |  | > 100 µM |  | > 42.2 µM
COc1ccc(Cc2nc3cc(OC)c(OC)cc3c(=O)[nH]2)cc1 | 4.78 µM | > 100 µM | 1.78 µM | 4.8 µM | 4.73 µM | > 100 µM | 34.3 µM | > 100 µM | 2.68 µM | 10.4 µM | 9.53 µM | 30.3 µM | 5.36 µM | > 59.6 µM | 13 µM | > 100 µM | 3.52 µM | > 45.6 µM | 9.33 µM | 28.8 µM
Nc1nc(=S)[nH]c(C(=O)Nc2nccs2)c1-c1ccccc1 |  | > 100 µM |  | > 100 µM |  | > 100 µM |  | > 100 µM |  | > 100 µM |  | > 100 µM |  | > 100 µM |  | > 100 µM |  | > 100 µM |  | > 100 µM
CN(C)c1ccc(O[Si](Oc2ccc(N(C)C)cc2)(Oc2ccc(N(C)C)cc2)Oc2ccc(N(C)C)cc2)cc1 |  | > 100 µM |  | > 100 µM |  | > 100 µM |  | > 100 µM |  | > 100 µM |  | > 100 µM |  | > 100 µM |  | > 100 µM |  | > 100 µM |  | > 100 µM
CCSc1ncc(Br)c(Sc2nc(N)nc3nc[nH]c23)n1 | 2.86 µM | > 100 µM | 19.8 µM | 88.6 µM | 5.74 µM | 80.3 µM | 3.11 µM | > 100 µM | 7.05 µM | > 100 µM | 1.25 µM | 34.3 µM | 3.42 µM | > 100 µM | 4.54 µM | > 100 µM | 3 µM | > 100 µM | 3.8 µM | 49.8 µM
